What was measured:
[1] = dihydropyridine-based compound alone, well known; cited from earlier work
wistar rats = experiment: Example AB: reproduction/developmental toxicity screening test (OECD 421); type: in vivo, rat
Text: The objective of this study is to assess whether octyltin tris (2-ethylexylmercaptoacetate) causes adverse effects on reproduction and/or development of wistar rats. This study was preceded by a dose-range finding study (see Example AA).
Materials and Methods: • Groups: one control group and three test groups (12 males and 12 female per group) administered with different dose levels of the test substance; • Housing: Pre-mating (PM): 4 rats/sex/cage, macrolon cages; • Mating (M): 1 male and 1 female per cage; • Gestation (G) and lactation: 1 rat/sex/cage, macrolon cages; • Species: rat, Wistar outbred, Charles River Wiga GmbH, 9-10 weeks of age at start; • Carrier: Commercial rodent diet (Rat & Mouse No. 3 Breeding diet, RM3), ad libitum; • Treatment: Administration via the diet during 14 consecutive days premating; during 14 consecutive days mating, gestation and lactation up to 4 days (males are given the test substance in the diet until sacrifice at the end of the mating period); • one or two batches of test diets are prepared shortly before initiation of treatment and stored in a freezer/refrigerator; the feed in the animal feeders is refreshed once per week; • Clinical observations: general clinical observations (all rats): daily; morbidity is checked again in the afternoon; • Body weight: at least once pretest, males and females, premating and mating weekly; • Food consumption: males and females, premating and mating weekly; for female during gestation: GD 0, 7, 14 and 21 during lactation; PN 1 and 4; • Pups: sex, body, weight, number of live and dead pups, clinical signs PN 1 and 4; • Water consumption: visual inspection of the drinking bottles; • Pathology: • macroscopic examination (all rats); • count: number of implantations (uterus) and corpora lutea (ovaria); • weighing the following organs of all the surviving rats: testes (males), epididymes […], thymus; • preservation all animals): testes, epididymes, seminal vesicles, prostate, ovaries, uterus, thymus and organs and tissues showing macroscopic abnormalities; the organs are preserved in formalin and discarded when the results of the OECD 421 study indicate non need for microscopy; • Histopathology: preserved tissues for control and high level only […].
(§1) On each day of analysis, calibration solutions are prepared by spiking rodent diet with a stock solution of the organotin compound followed by derivatisation with sodium tetraethyl borate, in order to derivatise the octyltin compounds to the corresponding octyltin-ethyl compounds, with simultaneous extraction of the derivatised compounds into hexane.
(§2) The concentration of the test substance in diet is then determined by GC-MS of the hexane extracts.

rat, Wistar outbred = experiment: Example AA: 14-day oral (diet) dose-range toxicity study; type: in vivo; settings: via the diet, 14 consecutive days
Text: The aim of this study is to select appropriate dose-levels for the main study.
Materials and Methods: • Groups: one control group and four test groups (4 males and 4 female per group) administered with different dose levels of the test substance; • Housing: 2 rats/sex/cage, macrolon cages; • Species: rat, Wistar outbred, Charles River Wiga GmbH, 9-10 weeks of age at start; • Carrier: Commercial rodent diet (Rat & Mouse No. 3 Breeding diet, RM3), ad libitum; • Treatment: Administration via the diet during 14 consecutive days; one batch of test diets is prepared shortly before initiation of treatment and stored in a freezer/refrigerator; the feed in the animal feeders is refreshed twice per week; • Clinical observations: general observations (all rats): daily; morbidity is checked again in the afternoon; • Body weight: at least once pretest, twice per week from the start of treatment (for the last time, on the day of scheduled necropsy); • Food consumption: twice weekly per cage (2 rats/cage) from the start of treatment; • Water consumption: visual inspection of the drinking bottles; • Pathology: • macroscopic examination (all rats); • weighing the following organs of all the surviving rats: kidneys, liver, spleen, testes, thymus; • preservation: the weighed organs are preserved in formalin and discarded when the results of the subsequent 90-day study indicate non need for microscopy on tissues from the 14-day study;
as §1, §2

[2] = rat, 200, 500 and 1250 mg/kg diet

Row | Compound | result in dynamic thermal stability (colour) test [1] | NOAEL expressed per body weight (wistar rats; female animals) [mg/kg body weight/day] | NOAEL expressed per body weight (wistar rats; male animals) | effects on pre- and post-natal development (wistar rats; [2]) | effects on reproduction organs (wistar rats; [2]) | tolerability of oral administration (wistar rats; [2]) | no averse effect level (NOAEL) for parental toxicity, fertility and development (wistar rats; rat, oral via the diet) [mg/kg diet] | abnormalities at necropsy (rat, Wistar outbred) | change in body weight and food consumption (rat, Wistar outbred) | clinical abnormalities (rat, Wistar outbred) | effects on organ weights (rat, Wistar outbred)
1 | CCCCCCCCCCCCOC(=O)C1=C(C)NC(C)=C(C(=O)OCCCCCCCCCCCC)C1 [DHP, dihydro-1,4-dimethyl-2,6-dicarbododecyloxy-3,5-pyridine] | poor results |  |  |  |  |  |  |  |  |  | 
2 | CCCCCCC[CH2][Sn]([S]CC(=O)OCC(CC)CCCC)([S]CC(=O)OCC(CC)CCCC)[S]CC(=O)OCC(CC)CCCC (centres unmarked) [octyltin tris (2-ethylexylmercaptoacetate)] |  | ~96 | approximately 72 mg/kg body weight/day | No effects were observed | No effects were observed | well tolerated at all dose-levels | 1250 | no abnormalities were observed at necropsy | no change in body weight and food consumption | no clinical abnormalities were observed | no effects were observed on organ weights
